According to patent publication US8802815B2, “Peptides and uses thereof to modulate IGF-1 synthesis and IGF-1 receptor expression” (Universite Pierre et Marie Curie (Paris 6), priority 2009, dated 2014):

Legend:
Format in all cases: cell-based, mouse
type II collagen = assay: Type II collagen production by immunochemistry, chondrocytes culture (FIG. 5); settings: 10^-7M peptide; 5th day of culture
Procedure: The mouse embryos chondrocytes obtained according to same protocol as described above were cultured and incubated at a 10^−7M peptide P70 concentration. […] In fact, an increase of 150% is observed relative to the untreated control.

IGF-1R = IGF-1R expression in chondrocytes in culture, optical density (FIG. 2)
Text: (§1) Inventors investigated P70 effect on IGF-1 synthesis and on expression of its receptor (IGF-1R) by means of chondrocytes in culture.

IGF-1 [1] = assay: IGF-1 production in chondrocytes in culture (FIG. 2)
Text: as §1

IGF-1 receptor = assay: IGF-1R expression by immunohistochemistry, 5-day primary chondrocytes culture (FIG. 3); settings: IHC, 5-day culture
chondrocytes [2] = assay: [3H] thymidine incorporation in DNA (cell proliferation), primary chondrocytes culture
Procedure: To assess peptide ability to induce cell proliferation, inventors carried out a test showing [H^3] thymidine incorporation during DNA duplication according to Kurz et al., 1997 method. This test was adapted to the model used by the inventors, namely a primary mouse embryonic chondrocytes culture.
Chondrocytes, obtained by dissociation of mouse mandible condyles (MCDC) were incubated in a culture medium permitting chondrogenesis, in particular, 5×10^5 cells/ml were incubated with 1 μCi [^3H]-thymidine/ml of medium (Amersham, code TRA120, stock 1 mCi/ml, specific activity 5 Ci/mmol) for 3 hours at 37° C. in DMEM medium (Dulbecco's modified Eagle's medium) fetal calf serum (FCS) free but supplemented with 100 μg/ml of ascorbic acid, 1 mmol/L of calcium chloride, 10 mmol/L of 3-glycerophosphate, and antibiotics. Same medium, in which 5 μl of [^3H]-thymidine are added for 2 minutes, is used as negative control. Supernatant was removed and cells were washed twice with saline solution buffered at pH 7.0 (PBS), the cells are washed twice (for 5 minutes) with methanol. Then the cells are washed three times with a 10% trichloroacetic acid (TCA) cold solution. After washing cells twice with DDW, cells are incorporated in 200 μl of 0.3M NaOH for 15 minutes. The cells are then transferred in 3 ml of a neutralized scintillation fluid with 200 μl of 0.3M HCl. […]

chondrocytes [3] = assay: Chondrogenesis: cartilage nodule formation in chondrocytes culture (FIG. 6); settings: 10^-7M peptide; 7th day of incubation; vs untreated chondrocytes
Procedure: In FIG. 6, the peptide P70 effect at a concentration of 10^−7M is compared with untreated chondrocytes (control). At 7th day of incubation, in the presence of the peptide, accelerated formation of nodules of cartilage is clearly observed. The cartilage nodules development (volume/culture) is 85% accelerated.

IGF-1 [4] = assay: IGF-1 synthesis by immunohistochemistry, primary chondrocytes culture (FIG. 4); settings: IHC
Text: Moreover (FIG. 4), P70 inhibits IGF-1 synthesis at 10^−6M (30% inhibition at a high concentration of peptide) and stimulates IGF-1 synthesis at 10^−7M (90% increase at a low concentration of peptide).

## Acetyl-SNFGSRKFSYKAKFWTDVTTSELG-amide (Ac-SNFGSRKFSYKAKFWTDVTTSELG-NH2) [P70, 24-mer peptide of the invention, N-terminal acetyl, C-terminal amide]
Type II collagen
  increase of type II collagen production relative to the untreated control: 150%
IGF-1R; 10^-6M peptide
  effect on the production of IGF-1 receptor: virtually inhibits
IGF-1R; 10^-7 M peptide
  effect on expression of IGF-1 receptor (IGF-1R): important stimulation effect
IGF-1 [1]; 10^-6M peptide
  effect on the production of IGF-1: virtually inhibits
IGF-1 [1]; 10^-7 M peptide
  effect on IGF-1 production: important stimulation effect
IGF-1 receptor; 10^-6 M peptide
  inhibition of IGF-1 receptor expression: 36.8%
IGF-1 receptor; 10^-7 M peptide
  increase of IGF-1 receptor expression: 23.8%
Chondrocytes [2]; 10^-6M peptide, 3 hours
  stimulatory effect on the proliferation of chondrocytes, greater than the untreated control: 53%
Chondrocytes [2]; 10^-7M peptide
  stimulation effect on the proliferation of chondrocytes: not observed
Chondrocytes [3]
  acceleration of cartilage nodules development (volume/culture): 85%
IGF-1 [4]; 10^-6M peptide
  inhibition of IGF-1 synthesis: 30%
IGF-1 [4]; 10^-7M peptide
  increase of IGF-1 synthesis: 90%
